According to US10993943B2, “Crystalline forms of selinexor and process for their preparation” (WATSON LABORATORIES INC., priority 2017, dated 2021):

Assay: Solubility in aqueous medium (buffers at pH 1.2, 4.5, 6.8)
Format: physicochemical
Conditions: Form T8 in comparison with Form A

Row | Structure (SMILES) | solubility in aqueous medium (pH 4.5 (acetate buffer)) | solubility in aqueous medium (pH 6.8 (phosphate buffer)) | solubility in aqueous medium (pH=1.2 (HCl buffer))
1 | O=C(/C=C\n1cnc(-c2cc(C(F)(F)F)cc(C(F)(F)F)c2)n1)NNc1cnccn1 [Form T8, (Z)-3-(3-(3,5-bis(trifluoromethyl)phenyl)-1H-1,2,4-triazol-1-yl)-N′-(pyrazin-2-yl) acrylohydrazide] | enhanced solubility | enhanced solubility | enhanced solubility
2 | O=C(/C=C\n1cnc(-c2cc(C(F)(F)F)cc(C(F)(F)F)c2)n1)NNc1cnccn1 [Form A, (Z)-3-(3-(3,5-bis(trifluoromethyl)phenyl)-1H-1,2,4-triazol-1-yl)-N′-(pyrazin-2-yl) acrylohydrazide] | practically insoluble | practically insoluble | practically insoluble
